Measured values published in ChEMBL document CHEMBL1146531, “Steroidal saponins from the bark of Dracaena draco and their cytotoxic activities” (J Nat Prod, 2003).
The source made the active and inactive calls. No cut-off for these calls is given here.

What was measured:
HL-60 [1] = experiment: Cytotoxicity against human HL60 cells after 72 hrs by MTT assay; type: functional, cell-based; settings: HL-60, 72 h
HL-60 [2] = experiment: Induction of apoptosis in human HL60 cells assessed as apoptotic cells at 30 uM after 12 hrs measured by morphological change; type: functional
HL-60 [3] = experiment: Induction of apoptosis in human HL60 cells assessed as PARP cleavage at 30 uM after 12 hrs by Western blot analysis; type: functional, cell-based
U-937 = experiment: Cytotoxicity against human U937 cells; type: functional, cell-based
HL-60 [4] = experiment: Cytotoxicity against human HL60 cells after 48 hrs by MTT assay; type: functional, cell-based

Row | Structure (SMILES) | IC50 (HL-60 [1]) | Activity (HL-60 [2]) | further results
1 | C[C@@H]1CC[C@@]2(OC1)O[C@H]1C[C@H]3[C@@H]4CC=C5C[C@@H](O[C@@H]6O[C@H](CO)[C@@H](O[C@@H]7O[C@@H](C)[C@H](O)[C@@H](O)[C@H]7O)[C@H](O)[C@H]6O)CC[C@]5(C)[C@H]4CC[C@]3(C)[C@H]1[C@@H]2C | > 100 µM |  | 
2 | CO[C@]1(CC[C@@H](C)CO[C@@H]2O[C@H](CO)[C@@H](O)[C@H](O)[C@H]2O)O[C@H]2C[C@H]3[C@@H]4CC=C5C[C@@H](O[C@@H]6O[C@H](CO)[C@@H](O)[C@H](O[C@@H]7O[C@H](CO)[C@@H](O)[C@H](O)[C@H]7O)[C@H]6O[C@@H]6O[C@@H](C)[C@H](O)[C@@H](O)[C@H]6O)CC[C@]5(C)[C@H]4CC[C@]3(C)[C@H]2[C@@H]1C | 7.2 µM |  | 
3 | C=C1CO[C@@]2(O[C@H]3C[C@H]4[C@@H]5CC=C6C[C@@H](O)C[C@@H](O[C@@H]7OC[C@H](O)[C@H](O)[C@H]7O[C@@H]7O[C@@H](C)[C@H](OC(C)=O)[C@@H](O)[C@H]7O)[C@]6(C)[C@H]5CC[C@]4(C)[C@H]3[C@@H]2C)[C@@H](O)[C@H]1O | > 100 µM |  | 
4 | C[C@@H]1CC[C@@]2(OC1)O[C@H]1C[C@H]3[C@@H]4CC=C5C[C@@H](O[C@@H]6O[C@H](CO)[C@@H](O[C@@H]7O[C@@H](C)[C@H](O)[C@@H](O)[C@H]7O)[C@H](O)[C@H]6O[C@@H]6O[C@@H](C)[C@H](O)[C@@H](O)[C@H]6O)CC[C@]5(C)[C@H]4CC[C@]3(C)[C@H]1[C@@H]2C [DIOSCIN] | 2 µM |  | 
5 | C=C1CO[C@@]2(O[C@H]3C[C@H]4[C@@H]5CC=C6C[C@@H](O)C[C@@H](O[C@@H]7OC[C@H](O)[C@H](O)[C@H]7O[C@@H]7O[C@@H](C)[C@H](OC(C)=O)[C@@H](OC(C)=O)[C@H]7OC(C)=O)[C@]6(C)[C@H]5CC[C@]4(C)[C@H]3[C@@H]2C)[C@@H](O)[C@H]1O [DRACONIN A] | 9.7 µM | 35.1% | Activity (HL-60 [3]): Dose-dependent effect; IC50 (U-937): 6.8 µM
6 | C=C1CO[C@@]2(O[C@H]3C[C@H]4[C@@H]5CC=C6C[C@@H](O)C[C@@H](O[C@@H]7OC[C@H](O)[C@H](O)[C@H]7O[C@@H]7O[C@@H](C)[C@H](O)[C@@H](OC(C)=O)[C@H]7OC(C)=O)[C@]6(C)[C@H]5CC[C@]4(C)[C@H]3[C@@H]2C)[C@@H](O)[C@H]1O [DRACONIN B] | 39 µM | 9.4% | 
7 | C=C1CO[C@@]2(O[C@H]3C[C@H]4[C@@H]5CC=C6C[C@@H](O)C[C@@H](O[C@@H]7OC[C@H](O)[C@H](O)[C@H]7O[C@@H]7O[C@@H](C)[C@H](O)[C@@H](O)[C@H]7OC(C)=O)[C@]6(C)[C@H]5CC[C@]4(C)[C@H]3[C@@H]2C)[C@@H](O)[C@H]1O [DRACONIN C] | > 100 µM | 5% | 
8 | C[C@@H]1CC[C@@]2(OC1)O[C@H]1C[C@H]3[C@@H]4CC=C5C[C@@H](O[C@@H]6O[C@H](CO)[C@@H](O)[C@H](O[C@@H]7O[C@H](CO)[C@@H](O)[C@H](O)[C@H]7O)[C@H]6O[C@@H]6O[C@@H](C)[C@H](O)[C@@H](O)[C@H]6O)CC[C@]5(C)[C@H]4CC[C@]3(C)[C@H]1[C@@H]2C [GRACILLIN] | 3.7 µM |  | 
9 | CO[C@]1(CC[C@@H](C)CO[C@@H]2O[C@H](CO)[C@@H](O)[C@H](O)[C@H]2O)O[C@H]2C[C@H]3[C@@H]4CC=C5C[C@@H](O[C@@H]6O[C@H](CO)[C@@H](O[C@@H]7O[C@@H](C)[C@H](O)[C@@H](O)[C@H]7O)[C@H](O)[C@H]6O[C@@H]6O[C@@H](C)[C@H](O)[C@@H](O)[C@H]6O)CC[C@]5(C)[C@H]4CC[C@]3(C)[C@H]2[C@@H]1C [METHYLPROTODIOSCIN] | 7.3 µM |  | Activity (HL-60 [4]): Active
